Source: ChEMBL document CHEMBL1150865, “Ma'iliohydrin, a cytotoxic chamigrene dibromohydrin from a Philippine Laurencia species” (2001)

Legend:
[1] = Growth inhibition of human NCI60 cells; type: functional
NCI/ADR-RES = assay: Growth inhibition of human NCI/ADR-RES cells; type: functional

## C=C1C[C@@H](O)[C@@H](Br)C(C)(C)[C@@]12C=C[C@@](O)(C(Br)Br)CC2 [MAILIOHYDRIN]
[1]
  GI50: 10 µM
NCI/ADR-RES
  GI50: 0.01 µM
